Values after ≈ are worked out from the molar mass of the structure shown.
Columns and labels:
[1] = system: normal human fibroblasts, BJ line (CRL-2522); assay: Neutral red cytotoxicity assay; settings: 24 h
Method: Normal human fibroblasts, BJ line (CRL-2522™), Eagle’s Minimum Essential Medium (EMEM), and fetal bovine serum (FBS) were obtained from ATCC (Manassas, VA, USA). Cells were grown following ATCC guidelines in an EMEM medium supplemented with 10% FBS at 37 °C in a humidified atmosphere of 95% air and 5% CO2 in a HeraCell 150 incubator (Heraeus, Hanau, Germany).
The assay was performed as per previously published protocols with slight modifications. In brief, BJ cells were plated in 96-well tissue culture plates (Nest Scientific Biotechnology, Wuxi, China) at a density of 6 × 10^3 cells per well and allowed to attach for 24 h in EMEM supplemented with 10% FBS. After the incubation period, the medium was removed, and 10% dimethyl sulfoxide (DMSO)-treated cells (Sigma-Aldrich, St. Louis, MO, USA) were used as a positive control, while nontreated cells served as a negative control.
The cells were treated with peptides suspended in EMEM medium supplemented with 10% FBS and incubated for 24 h at 37 °C in a humidified atmosphere of 95% air and 5% CO2. After the incubation, the supernatants were discarded and replaced with 100 µL of non-supplemented EMEM containing 0.33% neutral red (Sigma-Aldrich) diluted 1:40. The cells were incubated for an additional 2 h at 37 °C. Following incubation, the neutral red medium was removed, and the cells were washed with 100 µL of phosphate-buffered saline (PBS) per well.
To extract the dye into the solution, the cells were treated with 150 µL of a solution containing 50% ethanol (Alchem, Torun, Poland), 49% distilled H2O, and 1% acetic acid (Alchem, Torun, Poland) and incubated under shaking at 37 °C for 10 min. Absorbance was measured at 540 nm using a Synergy H1 plate reader (BioTek Instruments, Winooski, VT, USA). The assay was performed in triplicate to ensure reproducibility.

PAMPA-BBB assay = settings: 20 h incubation; for R, mass retention: mean ± SEM; for Papp at 20 h, 20 µM: pig, PAMPA, pH 7.4, Pe, effective permeability coefficient, pH 7.4, mean ± SEM
Description: This assay utilized a 96-well plate assembly consisting of a filter plate pre-coated with polar brain lipids (donor plate) and a receiver plate (acceptor plate). The phospholipid mixture used to coat the membrane was extracted from porcine polar brain lipids, with the following composition: 12.6% phosphatidylcholine, 33.1% phosphatidylethanolamine, 18.5% phosphatidylserine, 4.1% phosphatidylinositol, 0.8% phosphatidic acid, and 30.9% of other compounds, including cerebrosides, sulfatides, and pigments.
In each well of the donor filtration plate (Multiscreen Filter Plate, PVDF with a pore size of 0.45 µm), 5 µL of the phospholipid mixture in n-dodecane (20 mg/mL) was carefully applied to form the artificial membrane. After coating, 200 µL of phosphate-buffered saline (PBS at pH 7.4) containing 5% dimethyl sulfoxide (DMSO) as a co-solvent, and the test compound (at a concentration of 20 µM) was added to each well of the donor plate (in triplicate). […] The plate lid was then replaced and the resulting assembled donor–acceptor plates were incubated at room temperature for 20 h. After this time, the donor plate was removed and solutions from each well of both acceptor and donor plates were collected for further analysis. The concentrations of the tested compounds were determined by LC-MS. The analysis was conducted by UHPLC-MS system (Shimadzu Nexera X2 with LCMS-2020 detector) using a ReproSil Pure 120 ODS-3 column (Dr. Maisch GmbH, 100 × 2 mm, 2.4 µm particle size) with several gradients of ACN with 0.1% FA and 0.05% TFA at a flow rate of 0.3 mL/min. The eluted solution was monitored by an ESI-MS detector operated in a selected ion monitoring mode (SIM). […] CE=CD×VD+CA×VA/VD+VA

S. aureus ATCC 29213 = assay: microbe, parasite or virus in culture; format: cell-based, Staphylococcus aureus; settings: reference strain; for MIC: read-out: MIC S. aureus ATCC 29213
Method: (§1) The antimicrobial activity of the synthesized compounds was evaluated against four reference bacterial strains: Staphylococcus aureus (ATCC 29213), Enterococcus faecalis (ATCC 29212), Escherichia coli (ATCC 25922), and Pseudomonas aeruginosa (ATCC 27853), which are commonly used for determining antibacterial activity. In addition, two clinical strains, S. aureus (MRSA) and E. faecium (VRE), were included in the study. The bacterial strains were inoculated from Selectrol discs (Biomaxima SA, Lublin, Poland) onto blood agar (Graso Biotech, Starogard Gdański, Poland) and incubated at 37 °C for 24 h. Before testing, the strains were cultured aerobically on blood agar at 37 °C for 24 h.
(§2) The susceptibility of microorganisms to the synthesized compounds was determined using the broth microdilution assay, following the guidelines outlined by CLSI [30]. The final concentrations of the tested compounds in Mueller–Hinton broth, in 96-well plates (VWR International Sp. z o.o., Gdańsk, Poland), ranged from 0.125 to 256 mg/L. To prepare the bacterial suspension, bacteria from the overnight culture on blood agar were diluted in sterile 0.9% NaCl to achieve a turbidity equivalent to a 0.5 McFarland standard. The adjusted inoculum suspension was further diluted in Mueller–Hinton broth so that after inoculation, each well contained approximately 5 × 10^5 CFU/mL. Aliquots (5 µL) of bacterial suspension were added to each solution. The sterility control (containing the broth) and the growth control (containing the reference strain in broth without the tested compound) were also set up. The antibiotics vancomycin and gentamicin were used as a control. The plates were incubated at 37 °C under aerobic conditions. The results are expressed as the MIC of the tested compounds, which was defined as the lowest concentration at which no visible growth of bacteria (no turbidity) was observed. The assay was performed in triplicate.

[2] = system: S. aureus MRSA (clinical isolate no 203); assay: microbe, parasite or virus in culture; format: cell-based, Staphylococcus aureus; settings: methicillin-resistant clinical isolate no 203; read-out: MIC S. aureus MRSA
Method: as §1, §2

E. faecalis ATCC 29212 = assay: microbe, parasite or virus in culture; format: cell-based, Enterococcus faecalis; settings: reference strain; for MIC: read-out: MIC E. faecalis ATCC 29212
Method: as §1, §2

E. coli ATCC 25922 = assay: microbe, parasite or virus in culture; format: cell-based, Escherichia coli; settings: reference strain
Method: as §1, §2

Row | SMILES | concentration above which cytotoxicity was shown [1] | R, mass retention (PAMPA-BBB assay) [%] | Papp at 20 h, 20 µM (PAMPA-BBB assay) [×10⁻⁶ cm/s] | MIC (S. aureus ATCC 29213) [µM] | MIC [2] [µM] | MIC (E. faecalis ATCC 29212) [µM] | MIC (E. coli ATCC 25922) [µM] | MIC S. aureus ATCC 29213 (S. aureus ATCC 29213) [µg/mL] | MIC E. faecalis ATCC 29212 (E. faecalis ATCC 29212) [µg/mL] | MIC E. coli ATCC 25922 (E. coli ATCC 25922) [µg/mL]
1 | CN[C@H](CC(C)C)C(=O)N[C@H]1C(=O)N[C@@H](CC(N)=O)C(=O)N[C@H]2C(=O)N[C@H]3C(=O)N[C@H](C(=O)N[C@H](C(=O)NCCOCCOCCOCCn4cc(C(=O)N[C@@H](Cc5ccc(O)cc5)C(=O)N[C@@H](C)C(=O)N[C@@H](CCCNC(=N)N)C(=O)N[C@@H](C)C(=O)N[C@@H](C)C(=O)N[C@@H](C)C(=O)N[C@@H](CCCNC(=N)N)C(=O)N[C@@H](CCC(N)=O)C(=O)N[C@@H](C)C(=O)N[C@@H](CCCNC(=N)N)C(=O)N[C@@H](C)C(N)=O)nn4)c4cc(O)cc(O)c4-c4cc3ccc4O)[C@H](O)c3ccc(c(Cl)c3)Oc3cc2cc(c3O[C@@H]2O[C@H](CO)[C@@H](O)[C@H](O)[C@H]2O[C@H]2C[C@](C)(N)[C@H](O)[C@H](C)O2)Oc2ccc(cc2Cl)[C@H]1O [compound 10] | above 16 µg/mL | 2.0 ± 0.6 | 0.01 ± 0.003 | – | – | – | – | – | – | –
2 | CC[C@H](C)[C@H](NC(=O)[C@H](CCCCN)NC(=O)[C@H](CCCCN)NC(=O)[C@H](C)NC(=O)[C@H](CC(C)C)NC(=O)[C@H](C)NC(=O)[C@H](C)NC(=O)[C@H](CC(C)C)NC(=O)[C@H](C)NC(=O)[C@H](CCCCN)NC(=O)[C@H](CC(C)C)NC(=O)[C@H](CC(N)=O)NC(=O)[C@@H](NC(=O)[C@H](CCCCN)NC(=O)CNC(=O)[C@H](CC(C)C)NC(=O)[C@H](CC(C)C)NC(=O)[C@H](Cc1ccc(O)cc1)NC(=O)CNC(=O)[C@H](C)NC(=O)c1cn(CCOCCOCCOCCNC(=O)[C@H]2NC(=O)[C@H]3NC(=O)[C@H](NC(=O)[C@@H]4NC(=O)[C@H](CC(N)=O)NC(=O)[C@H](NC(=O)[C@@H](CC(C)C)NC)[C@H](O)c5ccc(c(Cl)c5)Oc5cc4cc(c5O[C@@H]4O[C@H](CO)[C@@H](O)[C@H](O)[C@H]4O[C@H]4C[C@](C)(N)[C@H](O)[C@H](C)O4)Oc4ccc(cc4Cl)[C@H]3O)c3ccc(O)c(c3)-c3c(O)cc(O)cc32)nn1)[C@@H](C)CC)C(=O)N[C@@H](CC(C)C)C(N)=O [compound 2] | above 64 µg/mL | 10.0 ± 0.6 | 0.187 | – | – | – | – | – | – | –
3 | CC[C@H](C)[C@H](NC(=O)[C@H](CCCCN)NC(=O)[C@H](CCCCN)NC(=O)[C@H](C)NC(=O)[C@H](CC(C)C)NC(=O)[C@H](C)NC(=O)[C@H](C)NC(=O)[C@H](CC(C)C)NC(=O)[C@H](C)NC(=O)[C@H](CCCCN)NC(=O)[C@H](CC(C)C)NC(=O)[C@H](CC(N)=O)NC(=O)[C@@H](NC(=O)[C@H](CCCCN)NC(=O)CNC(=O)[C@H](CC(C)C)NC(=O)[C@H](CC(C)C)NC(=O)[C@H](Cc1ccc(O)cc1)NC(=O)CNC(=O)[C@H](C)N)[C@@H](C)CC)C(=O)N[C@@H](CC(C)C)C(N)=O [compound 1, TP10] | – | – | – | 14.7 (≈ 32.1 µg/mL) | 3.67 (≈ 8.01 µg/mL) | 29.3 (≈ 63.9 µg/mL) | 14.7 (≈ 32.1 µg/mL) | – | – | –
4 | CN[C@H](CC(C)C)C(=O)N[C@H]1C(=O)N[C@@H](CC(N)=O)C(=O)N[C@H]2C(=O)N[C@H]3C(=O)N[C@H](C(=O)N[C@H](C(=O)NCCSSCCn4cc(C(=O)N[C@@H](CCCNC(=N)N)C(=O)N[C@@H](CCCNC(=N)N)C(=O)N[C@@H](CCCNC(=N)N)C(=O)N[C@@H](CCCNC(=N)N)C(=O)N[C@@H](CCCNC(=N)N)C(=O)N[C@@H](CCCNC(=N)N)C(=O)N[C@@H](CCCNC(=N)N)C(=O)N[C@@H](CCCNC(=N)N)C(=O)N[C@@H](CCCNC(=N)N)C(N)=O)nn4)c4cc(O)cc(O)c4-c4cc3ccc4O)[C@H](O)c3ccc(c(Cl)c3)Oc3cc2cc(c3O[C@@H]2O[C@H](CO)[C@@H](O)[C@H](O)[C@H]2O[C@H]2C[C@](C)(N)[C@H](O)[C@H](C)O2)Oc2ccc(cc2Cl)[C@H]1O [compound 17] | – | 20.7 ± 0.3 | – | 1.30 (≈ 4.01 µg/mL) | – | 2.59 (≈ 7.99 µg/mL) | >83 | 4 (≈ 1.3 µM) | 8 (≈ 2.59 µM) | >256

Source: article PMC11643744, “New Conjugates of Vancomycin with Cell-Penetrating Peptides—Synthesis, Antimicrobial Activity, Cytotoxicity, and BBB Permeability Studies” (Molecules, 2024)
